According to patent publication US9487489B2, “Halogen-substituted pyrazole derivatives as pest-control agents” (BAYER CROPSCIENCE AKTIENGESELLSCHAFT, priority 2013, dated 2016):

Columns and labels:
[1] = test system: cattle ticks (Boophilus microplus) Parkhurst strain, SP-resistant; assay: Boophilus microplus dip test (BOOPMI Dip); format: in vivo; conditions: application rate 100 ppm, assessed after 7 days
In short: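 Adult engorged female SP-resistant Parkhurst ticks (8–10) were fully immersed in compound diluted in water from a DMSO solution, then kept in a climate-controlled room. After 7 days, fertile egg-laying was scored, with larval hatching checked at about 42 days; 100% efficacy means no fertile eggs.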

[2] = test system: engorged adult female cattle ticks (Boophilus microplus); assay: Boophilus microplus injection test (BOOPMI Inj); format: in vivo; conditions: application rate 20 μg/animal; injection into abdomen; assessed after 7 days
In short: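 DMSO solution of compound (1 μl) injected into the abdomen of 5 engorged adult female ticks, which are then held in a climate-controlled room. After 7 days, efficacy is scored from laying of fertile eggs, with unclear eggs kept until larval hatch (~42 days); 100% means no fertile eggs, 0% all fertile.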

[3] = test system: adult cat fleas (Ctenocephalides felis); assay: Ctenocephalides felis oral test (CTECFE); format: in vivo; conditions: application rate 100 ppm in citrated cattle blood; after 2 days
In short: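 About 20 unfed adult cat fleas fed through parafilm membrane on citrated cattle blood containing compound (DMSO stock diluted in blood to test concentration). Kill % scored after 2 days (100% = all fleas dead).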

[4] = test system: L1 larvae of the Australian sheep blowfly (Lucilia cuprina); assay: Lucilia cuprina test (LUCICU); format: in vivo; conditions: application rate 100 ppm; after 2 days
In short: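 About 20 L1 larvae placed in a vessel with minced horsemeat plus compound (DMSO concentrate diluted with water to the desired concentration). Kill in % scored after 2 days, 100% meaning all larvae dead.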

[5] = test system: adult houseflies (Musca domestica); assay: Musca domestica test (MUSCDO); format: in vivo; conditions: application rate 100 ppm; after 2 days
In short: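 Compound dissolved in DMSO and diluted with water to the test concentration, applied with sugar solution on a sponge; 10 adult houseflies per vessel. Mortality scored after 2 days as % kill (100% all dead, 0% none).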

[6] = test system: green peach aphid (Myzus persicae); assay: Myzus persicae spray test (MYZUPE); format: in vivo; conditions: application rate 500 g/ha; Chinese cabbage leaf discs; after 6 days
In short: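 Chinese cabbage leaf discs infested with all aphid stages sprayed with compound in acetone/DMF with alkylaryl polyglycol ether emulsifier in water. Efficacy (% aphids killed; 100% all dead, 0% none) scored after 6 days.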

[7] = test system: larvae of the mustard beetle (Phaedon cochleariae); assay: Phaedon cochleariae spray test (PHAECO); format: in vivo; conditions: Chinese cabbage leaf discs, after 7 days
In short: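 Compound dissolved in acetone/dimethylformamide with alkylaryl polyglycol ether emulsifier, made up in water containing 1000 ppm emulsifier, then diluted to test concentrations and sprayed against mustard beetle larvae. Efficacy (% larvae killed) scored after 7 days.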

[8] = test system: caterpillars of the armyworm (Spodoptera frugiperda); assay: Spodoptera frugiperda spray test (SPODFR); format: in vivo; conditions: application rate 500 g/ha; maize leaf discs; after 7 days
In short: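 Maize leaf discs sprayed with compound in acetone/DMF with alkylaryl polyglycol ether emulsifier (1000 ppm) in water, dried, then infested with armyworm caterpillars. Mortality (%) scored after 7 days; 100% = all caterpillars killed, 0% = none killed.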

[9] = test system: greenhouse red spider mite (Tetranychus urticae); assay: Tetranychus urticae spray test, OP-resistant (TETRUR); format: in vivo; conditions: bean leaf discs, after 6 days
In short: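 Bean leaf discs carrying all stages of OP-resistant Tetranychus urticae were sprayed with compound formulated in acetone/dimethylformamide and diluted in water with 1000 ppm alkylaryl polyglycol ether emulsifier. Mortality (% efficacy, 100% = all mites killed) scored after 6 days.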

[10] = test system: southern root-knot nematode (Meloidogyne incognita); assay: Meloidogyne incognita test (MELGIN); format: in vivo; conditions: application rate 20 ppm; lettuce; after 14 days
Protocol: K. Meloidogyne incognita Test (MELGIN)
Solvent: 125.0 parts by weight of acetone
To prepare a suitable active compound preparation, 1 part by weight of active compound is mixed with the stated amount of solvent and the concentrate is diluted with water to the desired concentration.
Vessels are filled with sand, active compound solution, an egg/larvae suspension of the southern root-knot nematode (Meloidogyne incognita) and lettuce seeds. The lettuce seeds germinate and the plants develop. On the roots, galls are formed.
After 14 days, the nematicidal efficacy in % is determined by the formation of galls. 100% means that no galls have been found; 0% means that the number of galls on the treated plants corresponds to the untreated control.

[11] = test system: adult cat fleas (Ctenocephalides felis); assay: Ctenocephalides felis in vitro contact test with adult cat fleas (T1); conditions: after 48 h
In short: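 Test compound was dissolved in acetone p.a. (9 mg per 1 ml) and diluted as needed. 250 μl was spread evenly over the inner walls and floor of a 25 ml test tube by rotating on an orbital shaker for 2 h at 30 rpm. Once the solvent evaporated, 5-10 adult Ctenocephalides felis were added. Tubes were capped with a perforated plastic lid and kept horizontal at room temperature and ambient humidity.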

[12] = test system: adult dog ticks (Rhipicephalus sanguineus); assay: Rhipicephalus sanguineus in vitro contact test with adult brown dog ticks (T2); conditions: after 48 h
In short: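 Acetone solutions coated onto test tube walls and floor, giving 5 μg/cm^2 at 900 ppm. Five to ten adult ticks held per tube in the dark at room temperature for 48 h, then heated at 45-50° C for up to 5 min; efficacy is the percentage of dead or moribund ticks unable to climb away.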

[13] = logP determination by HPLC on a reversed-phase column (C18), EEC Directive 79/831 Annex V.A8; format: physicochemical; conditions: HPLC on reversed-phase column (C18), acetonitrile/water with formic acid, EEC Directive 79/831 Annex V.A8
In short: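 Retention on a C18 reversed-phase column (Zorbax Eclipse Plus, 1.8 micron) was used, eluting with acetonitrile/water, each containing formic acid. The gradient ran from 10% to 95% acetonitrile over 4.25 min, then held 1.25 min, at 55° C and 2.0 ml/min, with MS detection.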

Row | SMILES | efficacy (laying of fertile eggs) [1] | efficacy (laying of fertile eggs) [2] | efficacy (kill in %) [3] | efficacy (kill in %) [4] | efficacy (kill in %) [5] | efficacy in % [6] | efficacy in % ([7]; application rate 500 g/ha) | efficacy in % [8] | efficacy in % ([9]; application rate 500 g/ha) | nematicidal efficacy in % (formation of galls) [10] | efficacy (dead or moribund fleas) ([11]; application rate 1 μg/cm^2) | efficacy (dead or moribund fleas) ([11]; application rate 5 μg/cm^2) | efficacy (dead or moribund ticks) ([12]; application rate 1 μg/cm^2) | efficacy (dead or moribund ticks) ([12]; application rate 5 μg/cm^2) | logP [13] | efficacy in % ([7]; application rate 100 g/ha) | efficacy in % ([9]; application rate 100 g/ha)
1 | CNC(=O)c1cc(-c2cnn(-c3c(C(F)(F)F)c(C(F)(F)C(F)(F)F)nn3C)c2)ccc1Cl [Ic-152] | 100% | 100% | 100% | 100% | 100% | 100% | 100% | 100% | 100% | 100% | 100% | 100% | 100% | 100% |  |  | 
2 | Cn1nc(C(F)(F)C(F)(F)F)c(C(F)(F)F)c1-n1cc(-c2ccc(Cl)c(C(=O)NS(C)(=O)=O)c2)cn1 [Ic-26] |  |  |  |  |  |  |  |  |  | 90% |  |  |  |  | 3.58 |  | 
3 | Cn1nc(C(F)(F)C(F)(F)F)c(C(F)(F)F)c1-n1cc(-c2ccc(Cl)c(C(=O)NCC(N)=O)c2)cn1 [Ic-156] |  | 90% | 100% |  |  | 90% | 100% | 100% | 100% | 90% |  |  |  |  |  |  | 
4 | CSCC1CCC1NC(=O)c1cc(-c2cnn(-c3c(C(F)(F)F)c(C(F)(F)C(F)(F)F)nn3C)c2)ccc1Cl (stereo not drawn) [Ic-120] |  |  |  |  |  |  |  |  |  | 90% |  |  |  |  | 4.56 | 83% | 100%
